Assay results reported in patent publication US20250214977A1, “STAT6 INHIBITORS AND USES THEREOF” (Kymera Therapeutics, Inc., priority 2024, published 2025).

test system: Phosphorylation of STAT6 in human A549 cells; assay: Phosphorylated STAT6 (pSTAT6) flow cytometry assay in human A549 cells; format: cell-based; settings: read-out: STAT6 IL4 pSTAT6 assay in A549 cells: Average IC50
From the text: Example 3. Phosphorylated STAT6 (pSTAT6) Flow Cytometry Assay in Human A549 Cells
Phosphorylation of STAT6 in human A549 cells was quantitatively measured using flow cytometry technology.

Compound | IC50
CNc1ccc(-c2cc(C3=CCCN(C(=O)CCn4ccnn4)C3)c(F)c3[nH]c(C(=O)N4CCN(c5ncccc5OC)CC4)cc23)c(OC)c1 [Example I-580] | < 100 nM
COc1ccccc1-c1cc(C2=CCCN(C(=O)CCn3ccnn3)C2)c(F)c2[nH]c(C(=O)N3CCN(c4cnc5ncccn45)CC3)cc12 [Example I-1017] | < 100 nM
COc1ccccc1-c1cc(C2=CCCN(C(=O)CCn3ccnn3)C2)c(F)c2[nH]c(C(=O)N3CCN(c4ncc(N5CCCCC5)cc4OC4CC4)CC3)cc12 [Example I-961] | < 100 nM
CCc1cnccc1-c1cc(C2=CCCN(C(C)=O)C2)c(F)c2[nH]c(C(=O)N3Cc4cnn(C)c4C3)cc12 [Example I-705] | 10000 to 100000 nM
COc1ccccc1-c1cc(C2=CCCN(C(=O)CCn3ccnn3)C2)c(F)c2[nH]c(C(=O)N3CCCN(c4ccc(F)cn4)CC3)cc12 [Example I-850] | < 100 nM
COc1ccccc1-c1cc(C2=CCCN(C(=O)CCn3ccnn3)C2)c(F)c2sc(C(=O)N(C)C)cc12 [Example I-337, 6-(1-(3-(1H-1,2,3-triazol-1-yl)propanoyl)-1,2,5,6-tetrahydropyridin-3-yl)-7-fluoro-4-(2-methoxyphenyl)-N,N-dimethylbenzo[b]thiophene-2-carboxamide] | < 100 nM
COc1ccccc1-c1cc(C2=CCCN(C(=O)CCn3ccnn3)C2)c(F)c2[nH]c(C(=O)N3CCN(c4ncn5c4CCCC5)CC3)cc12 [Example I-1034] | < 100 nM
COc1cc(F)c(F)cc1-c1cc(C2=CCCN(C(=O)CCn3ccnn3)C2)c(F)c2[nH]c(C(=O)N3CCN(c4ncccc4OC4CC4)CC3)cc12 [Example I-596] | < 100 nM
COc1ccccc1-c1cc(C(=O)N2Cc3cnn(C)c3C2)cc2cc(C3=CCCN(C(=O)CCn4ccnn4)C3)n(CC3CC3)c12 [Example I-736] | < 100 nM
COc1cnccc1-c1cc(C2=CCCN(C(=O)CCn3ccnn3)C2)cc2cc(C(=O)N(C)C)oc12 [Example I-1067] | < 100 nM
COc1cccnc1N1CCN(C(=O)c2cc3c(-c4cccc(F)c4F)cc(C4=CCCN(C(=O)CCn5ccnn5)C4)c(F)c3[nH]2)CC1 [Example I-371] | < 100 nM
COc1ccccc1-c1cc(C2=CCCN(C(=O)CCn3ccnn3)C2)c(F)c2[nH]c(C(=O)N3CCN(c4c(C)nn(C)c4C#N)CC3)cc12 [Example I-775] | < 100 nM
COc1cc2c(-c3cc(C4=CCCN(C(=O)CCn5ccnn5)C4)c(F)c4[nH]c(C(=O)N5CCN(c6ncc(F)cc6OC)CC5)cc34)ccnc2cc1F [Example I-691] | < 100 nM
COc1ccncc1-c1cc(C2=CCCN(C(=O)CCn3ccnn3)C2)c(F)c2[nH]c(C(=O)N3CCN(C4CCCCC4)CC3)cc12 [Example I-1149] | < 100 nM
COc1cc(F)cnc1N1CCN(C(=O)c2cc3c(C=CC(C)(C)O)cc(C4=CCCN(C(=O)CCn5ccnn5)C4)c(F)c3[nH]2)CC1 [Example I-1110] | < 100 nM
COc1ccccc1-c1cc(C2=CCCN(C(=O)CCn3ccnn3)C2)c(F)c2[nH]c(C(=O)N3CCc4cccc(OC)c4C3)cc12 [Example I-901] | < 100 nM
CCOc1ccc(-c2cc(C3=CCCN(C(=O)CCn4ccnn4)C3)c(F)c3[nH]c(C(=O)N4CCN(c5ncc(F)cc5OC)CC4)cc23)c(OCC)c1 [Example I-618] | < 100 nM
CCc1cnccc1-c1cc(C2=CCCN(C(=O)CCn3ccnn3)C2)c(F)c2[nH]c(C(=O)N3CCN(c4ncc(OC)cc4OC)CC3)cc12 [Example I-484] | > 100000 nM
CN(C)C(=O)c1cc2cc(C3=CCCN(C(=O)CCn4ccnn4)C3)cc(NC[C@@H]3CCC(=O)N3C)c2o1 [Example I-896] | 100 to 1000 nM
COc1cc(F)cnc1N1CCN(C(=O)c2cc3c(-c4ccccc4CN4CCOCC4)cc(C4=CCCN(C(=O)CCn5ccnn5)C4)c(F)c3[nH]2)CC1 [Example I-1123] | < 100 nM
COc1ccccc1-c1cc(C2=CCCN(C(=O)CCn3ccnn3)C2)c(F)c2[nH]c(C(=O)N3CCN(c4cc(F)cc(F)c4OC)CC3)cc12 [Example I-357] | < 100 nM
COc1cc(F)cnc1N1CCN(C(=O)c2cc3c(-c4ccc(-c5ccccn5)cc4)cc(C4=CCCN(C(=O)CCn5ccnn5)C4)c(F)c3[nH]2)CC1 [Example I-1120] | < 100 nM
O=C(CCn1ccnn1)N1CCC=C(c2cc(-c3ccccc3)c3cc(C(=O)N4CCN(c5ncccc5OC5CC5)CC4)[nH]c3c2F)C1 [Example I-938] | < 100 nM
COc1cc(C#N)ccc1-c1cc(C2=CCCN(C(=O)CCn3ccnn3)C2)c(F)c2[nH]c(C(=O)N3CCN(c4ncccc4OC)CC3)cc12 [Example I-576] | < 100 nM
COc1ccccc1-c1cc(C2=CCCN(C(=O)CCn3ccnn3)C2)c(F)c2[nH]c(C(=O)N3CCN(c4ccc5n[nH]cc5c4)CC3)cc12 [Example I-859] | < 100 nM
COc1ccccc1-c1cc(C2=CCCN(C(=O)CCn3ccnn3)C2)c(F)c2[nH]c(C(=O)N3CCN(c4ncc(N(C)C)cc4OC)CC3)cc12 [Example I-416] | < 100 nM

More lines, now with the values ahead:

IC50 | Compound
> 100000 nM | COc1cccnc1N1CCN(C(=O)c2cc3c(-c4cnccc4C(C)C)cc(C4=CCCN(C(=O)CCn5ccnn5)C4)c(F)c3[nH]2)CC1 [Example I-607]
< 100 nM | COc1ccccc1-c1cc(C2=CCCN(C(=O)CCn3ccnn3)C2)c(F)c2[nH]c(C(=O)N3Cc4cn(-c5ncccc5OC)cc4C3)cc12 [Example I-417]
< 100 nM | CCc1cc(C)ncc1-c1cc(C2=CCCN(C(=O)CCn3ccnn3)C2)c(F)c2[nH]c(C(=O)N3CCN(c4ncc(F)cc4OC)CC3)cc12 [Example I-742]
< 100 nM | CCc1cnc(N2CCN(C(=O)c3cc4c(-c5cnccc5OC)cc(C5=CCCN(C(=O)CCn6ccnn6)C5)c(F)c4[nH]3)CC2)c(OC)c1 [Example I-453]
< 100 nM | CN(C)C(=O)c1cc2cc(C3=CCCN(C(=O)CCn4ccnn4)C3)cc(NCc3ccc(C#N)cc3)c2o1 [Example I-895]
< 100 nM | COc1cccnc1N1CCN(C(=O)c2cc3c(N4CCCOCC4)cc(C4=CCCN(C(=O)CCn5ccnn5)C4)c(F)c3[nH]2)CC1 [Example I-592]
< 100 nM | COc1ccccc1-c1cc(C2=CCCN(C(=O)CCn3ccnn3)C2)c(F)c2[nH]c(C(=O)N3CCN(c4ccc5cn[nH]c5c4)CC3)cc12 [Example I-963]
< 100 nM | COc1cccnc1N1CCN(C(=O)c2cc3c(-c4nc(C)[nH]c4C)cc(C4=CCCN(C(=O)CCn5ccnn5)C4)c(F)c3[nH]2)CC1 [Example I-572]
100 to 1000 nM | CC(=O)N1CCC=C(c2cc(-c3ccc(C(F)(F)F)cc3O)c3cc(C(=O)N(C)C)[nH]c3c2F)C1 [Example I-888]
> 100000 nM | (R)-5-(1-(2-formyl-1,2,3,4-tetrahydroisoquinoline-3-carbonyl)-1,2,5,6-tetrahydropyridin-3-yl)-7-(2-methoxyphenyl)-N,N-dimethylbenzofuran-2-carboxamide [Example I-804]
< 100 nM | CCc1cn[nH]c1N1CCN(C(=O)c2cc3c(-c4cnccc4OC)cc(C4=CCCN(C(=O)CCn5ccnn5)C4)c(F)c3[nH]2)CC1 [Example I-540]
10000 to 100000 nM | COc1ccccc1-c1cc(C2=CCCN(C(=O)C3Cc4ccccc4CN3C=O)C2)cc2cc(C(=O)N(C)C)oc12 (stereo not drawn) [Example I-803, 5-(1-(2-formyl-1,2,3,4-tetrahydroisoquinoline-3-carbonyl)-1,2,5,6-tetrahydropyridin-3-yl)-7-(2-methoxyphenyl)-N,N-dimethylbenzofuran-2-carboxamide]
100 to 1000 nM | COc1cc(F)cnc1N1CCN(C(=O)c2cc3c(-c4ccc(OCC5CC5)nc4)cc(C4=CCCN(C(=O)CCn5ccnn5)C4)c(F)c3[nH]2)CC1 [Example I-1164]
< 100 nM | CC(=O)N1CCC=C(c2cc(-c3cncc4ccccc34)c3cc(C(=O)N(C)C)[nH]c3c2F)C1 [Example I-1098]
1000 to 10000 nM | CNc1ccc(-c2cc([C@@H]3CCCN(C(=O)CCn4ccnn4)C3)cc3[nH]c(C(=O)N(C)C)cc23)c(OC)c1 (single isomer, unassigned) [Example I-1191]
100 to 1000 nM | CC(C(=O)N1CCC=C(c2ccc3cc(C(=O)N(C)C)[nH]c3c2)C1)n1ccccc1=O (stereo not drawn) [Example I-825]
< 100 nM | COc1ccncc1-c1cc(C2=CCCN(C(=O)CCn3ccnn3)C2)c(F)c2[nH]c(C(=O)N3CCN(c4cc5cc[nH]c5nc4C#N)CC3)cc12 [Example I-485]
< 100 nM | COc1ccc(Cl)c(-c2cc(C3=CCCN(C(=O)CCn4ccnn4)C3)cc3[nH]c(C(=O)N(C)C)cc23)c1 [Example I-1062]
< 100 nM | COc1ccccc1-c1cc(C2=CCCN(C(=O)CCn3ccnn3)C2)c(F)c2[nH]c(C(=O)N3CCN(c4nc5ccccc5nc4C)CC3)cc12 [Example I-339]
< 100 nM | COc1ccccc1-c1cc(C2=CCCN(C(=O)CCn3ccnn3)C2)c(F)c2[nH]c(C(=O)N3CCN(c4nc(C)nc5ccccc45)CC3)cc12 [Example I-923]
< 100 nM | COc1ccncc1-c1cc(C2=CCCN(C(=O)CCn3ccnn3)C2)c(F)c2[nH]c(C(=O)N3CCN(c4ncncc4OC)CC3)cc12 [Example I-429]
< 100 nM | CCn1nccc1-c1cc(C2=CCCN(C(C)=O)C2)c(F)c2[nH]c(C(=O)N3Cc4cnn(CC)c4C3)cc12 [Example I-1176]
< 100 nM | COc1ccncc1-c1cc(C2=CCCN(C(=O)CCn3ccnn3)C2)c(F)c2[nH]c(C(=O)N(C)C)cc12 [Example I-1065]
< 100 nM | COc1ccccc1-c1cc(C2=CCCN(C(=O)CCn3ccnn3)C2)c(F)c2[nH]c(C(=O)N3CCN(C4CC5CCC4C5)CC3)cc12 (stereo not drawn) [Example I-1181]
1000 to 10000 nM | COc1cc(F)cnc1N1CCN(C(=O)c2cc(-c3cccnc3C3CC3)c3[nH]c(C4CCCN(C(=O)CCn5ccnn5)C4)cc3c2)CC1 (stereo not drawn) [Example I-1204]
100 to 1000 nM | CC(=O)N1CCC=C(c2cc(-c3ccc(C)cc3O)c3cc(C(=O)N(C)C)[nH]c3c2F)C1 [Example I-886]
< 100 nM | COc1ccccc1-c1cc(C2=CCCN(C(=O)CCn3ccnn3)C2)c(F)c2[nH]c(C(=O)N3CCN(c4cccc5cncn45)CC3)cc12 [Example I-936]
< 100 nM | COc1ccccc1-c1cc(C2=CCCN(C(=O)CCn3ccnn3)C2)c(F)c2[nH]c(C(=O)N3CCN(c4ccccn4)C(=O)C3)cc12 [Example I-1008]
